For one experiment, the system named is HO-1. Nature of the experiment: HO-1 mRNA by RT-qPCR. To be noted: 48 h. The format is cell-based, human. On the procedure: LUHMES cells were seeded on PLO/FN coated 6-well microplates and the pharmacological treatments were performed as previously explained. The cells were washed in HBSS, prior to being collected for mRNA isolation (RNeasy® Plus Mini Kit, Qiagen, Venlo, Netherlands), following the manufacturer’s instructions. The mRNA concentrations were determined on a Nano-Drop 2000c (Thermo Fisher Scientific) and 1 µg of mRNA was reverse-transcribed into cDNA with the iScript™ Reverse Transcription Supermix for RT-qPCR Kit (Bio-Rad) on a thermal cycler (SensoQuest, Göttingen, Germany). Real-time PCR was performed using SYBR™ Select Master Mix for CFX (Thermo Fisher Scientific) with 30 ng cDNA and 0.4 µM of primers against the respective target genes (Supplementary Table S3), in a 20 µl total volume, on a CFX96 Touch™ Real-Time Cycler (Bio-Rad). The relative expression of mRNA was calculated using the CFX Manager software (ΔΔCt method) from Bio-Rad, and the Ct values of the target-genes were normalized to the reference genes RPL22 and UBQLN1. The data were reported as fold change relative to the control (DMSO-treated) condition.
On the technique in general: Quantitative PCR measures a nucleic acid by following its amplification.

A further experiment relates to Nrf2. Nature of the experiment: Nrf2 nuclear translocation (cell fractionation, Western blot). To be noted: 4 h treatment. In kind it is cell-based, human. On the procedure: For fractionation experiments, LUHMES were seeded on double-coated T25 flasks and submitted to pharmacological treatments. Afterwards, the medium was removed and cells were briefly washed with warm HBSS, and trypsinized for 5 min at 37 °C. The cells were pelleted at 500×g for 5 min at 4 °C, washed once with ice-cold PBS (phosphate buffered saline), and centrifuged at 500 g for 2 min at 4 °C. Nuclear protein extraction was achieved using the NE-PER™ nuclear and cytoplasmic extraction kit (Thermo Fisher Scientific), according to the manufacturer’s instructions. Briefly, the pellet was resuspended in 50 µl of CER I buffer, supplemented with Halt™ protease and phosphatase inhibitor cocktail (Thermo Fisher Scientific), and incubated on ice for 10 min, followed by the addition of 2.75 µl of CER II, and a 2 min incubation on ice after vortexing. The samples were then centrifuged at maximum speed for 10 min at 4 °C and the cytoplasmic fraction was saved. The nuclear pellet was washed with ice-cold PBS and resuspended in 25 µl of NER buffer supplemented with protease and phosphatase inhibitors, followed by 6 cycles of 10 min incubation on ice, with 15 s of vortexing between each cycle. Finally, the samples were centrifuged at maximum speed for 10 min at 4 °C and the nuclear fraction was transferred to a new tube. All protein extracts were stored long-term at − 80 °C.
The concentrations of protein extracts were determined by BCA (bicinchoninic acid) assay, using the Pierce™ BCA protein assay kit (Thermo Fisher Scientific), according to the manufacturer’s instructions. Absorbance values were measured on a FLUOstar® Omega plate reader. For Western blot analysis, sample volumes were diluted in PBS to ensure that equal amounts of total protein were loaded. For fractionated samples, 30 µg of cytoplasmic fraction and 15 µg of nuclear fraction were applied. Samples were denatured by heating at 95 °C for 5 min on a ThermoMixer C (Eppendorf, Wesseling-Berzdorf, Germany) with 4 × Laemmli sample buffer supplemented with 10% β-ME (β-mercaptoethanol). SDS–PAGE was performed using 7.5% Criterion™ TGX™ precast midi gels in a Tris–glycine-SDS running buffer (Bio-Rad). The proteins were blotted onto PVDF membranes, using a trans-blot turbo transfer system (Bio-Rad) at 25 V for 30 min. The membranes were blocked for 1 h at RT, with 3 × Roti®-Block solution (Carl Roth, Karlsruhe, Germany) or 5% nonfat-dry milk in 0.05% TBST (Tris-buffered saline with 0.05% Tween20), in the case of the Nrf2 antibody. Membranes were incubated at 4 °C overnight under gentle shaking with the appropriate primary antibody solutions as listed in Supplementary Table S2. On the following day, the membranes were washed with TBST, and incubated with the HRP-secondary antibodies for 2 h at RT (Supplementary Table S2). After further washing, the membranes were exposed to Clarity Western ECL Substrate (Bio-Rad), or SuperSignal West Femto Maximum Sensitivity Substrate (Thermo Fisher Scientific) in the case of the Nrf2 antibody. Chemiluminescence signal was detected with an Odyssey® Fc imaging system (LI-COR Biosciences, Bad Homburg, Germany) and analyzed by Image Studio™ software (LI-COR Biosciences). Fraction purity was confirmed and signal intensity normalized to housekeeping proteins, using β-III tubulin for the cytoplasmic fraction and lamin A for the nuclear fraction. Protein expression was expressed as fold change relative to the control (DMSO-treated) condition.
On the technique in general: A western blot detects proteins with antibodies after separation by electrophoresis.

[1] abbreviates: presence of 20 nM annonacin, vs DMSO control under annonacin.
The mark [2] stands for this setting: absence of annonacin, vs control.

Regarding `Cn1c(Nc2nc3ccc(C(F)(F)F)cc3s2)nc2cc(C(=O)NCCOCCO)ccc21` [HPP-D], the “HO-1 mRNA expression” value is reported as 19 fold over DMSO control with HO-1 (absence of annonacin) and “significantly rescued from this downregulation” with HO-1 (setting [1]). Besides, the “Nrf2 expression in the nuclear fraction, normalized to lamin A” value with Nrf2 (setting [2]) was “significantly increased expression of Nrf2 protein in the nuclear fraction”; in the experiment on Nrf2 (presence of 20 nM annonacin), “higher expression of Nrf2 in the nuclear fraction”.
With `CCCCCCCCCCCC[C@@H](O)[C@H]1CC[C@H]([C@H](O)CCCC[C@H](O)CCCCC[C@@H](O)CC2=CC(C)OC2=O)O1` (stereo partly drawn) [annonacin], the “HO-1 mRNA expression” value with HO-1 (20 nM annonacin alone (DMSO control condition) vs DMSO control without annonacin) is listed as “downregulation of both target-genes”.
With `O=C1[C@H](CC[C@H](O)c2ccc(F)cc2)[C@@H](c2ccc(O)cc2)N1c1ccc(F)cc1` [ezetimibe], the “HO-1 mRNA expression” value in the experiment on HO-1 (absence of annonacin) and with HO-1 (setting [1]) was “did not induce significant changes” each time. For the same compound, the “Nrf2 expression in the nuclear fraction, normalized to lamin A” value with Nrf2 (setting [2]) and with Nrf2 (presence of 20 nM annonacin) was “no evidence of increasing the Nrf2 nuclear expression” throughout.
Turning to `C=CC(C)(C)c1cc(/C=C/C(=O)c2ccc(O)cc2)c(OC)cc1O` [licochalcone A], in the experiment with HO-1 (setting [1]), the “HO-1 mRNA expression” value was “significantly rescued from this downregulation”. The results for the “Nrf2 expression in the nuclear fraction, normalized to lamin A” value in the experiment with Nrf2 (setting [2]) and with Nrf2 (presence of 20 nM annonacin) were “significantly increased expression of Nrf2 protein in the nuclear fraction” and “higher expression of Nrf2 in the nuclear fraction”, respectively.

These data come from paper PMC11362529, “Exploring the neuroprotective potential of Nrf2-pathway activators against annonacin toxicity” (Scientific Reports, 2024).
